According to US10220024B2, “Method of inhibiting cancer cell, method for detecting cancer cell, and system for detecting cancer cell” (CANON KABUSHIKI KAISHA, priority 2012, dated 2019):
Like-named read-outs stand apart in the source and are kept apart here.

Experiments:
[1] = Measurement of fluorescent property of compound (spectrofluorometer); assay type: physicochemical; conditions: 5 μM DMSO solution
Method: The excitation wavelength and fluorescence wavelength of the compound were measured by a FL4500 spectrofluorometric measuring machine manufactured by Hitachi High-Technologies Corporation.

[2] = system: K562 ALDH (−) fraction (general cancer cells); test: Cancer stem-cell selective inhibitory action against chronic myelocytic leukemia cells, ALDH (−) fraction, CellTiter-Glo; assay type: cell-based, Human; conditions: Homo sapiens, 24 hours, relative to 0.1% DMSO, read-out: ALDH(−) (growth rate)
Method: Human chronic myelocytic leukemia cells, K562, were pre-cultured in RPMI1640 medium containing 10% FBS at 37° C. in a 5% CO2 ambient. Then, a fraction containing 80% or more of cancer stem cells was extracted by use of ALDEFLUOR reagent (manufactured by VERITAS Corporation) and FACSAria flow cytometry (manufactured by Nippon Becton, Dickinson and Company). Subsequently, Compound (5) was added to the medium so as to obtain a final concentration of 10 μg/mL and cultured at 37° C. for 24 hours in a 5% CO2 ambient. The cultured cells were analyzed for viable cell count according to CellTiter-Glo Luminescent Cell Viability Assay (manufactured by Promega KK.). As a reference, the number of cells cultured in a medium containing a 0.1% dimethylsulfoxide solution (hereinafter, simply referred to as DMSO) in place of a medium containing Compound (1), in the aforementioned operation, was used as 0.1. Note that hereinafter, an ALDEFLUOR reagent positive fraction (deemed as cancer stem cells) is represented by ALDH (+), whereas an ALDEFLUOR reagent negative fraction (not deemed as cancer stem cells) is represented by ALDH (−), in some cases.
The same operation as in Experimental Example 12 was repeated except that Compound (5) in Experimental Example 12 was changed to the compounds shown in Table 4 and final concentrations shown in Table 4 were used and viable cell counts were separately analyzed. Note that the growth rate in Examples herein is a numerical value of the number of cells obtained after culture relative to the number of cells (regarded as 0.1) grown in a medium containing 0.1% DMSO.
The same operation as in Experimental Example 12 was repeated except that Compound (5) in Experimental Example 12 was changed to Imatinib (manufactured by NOVARTIS), which is a general anticancer drug, and comparative compounds shown in Table 4 and final concentrations shown in Table 4 were used and viable cell counts were separately analyzed.
The growth suppressive effect of cancer stem cells was evaluated based on the following criteria. Note that the growth rate in Examples herein is a numerical value relative to the number of cells (regarded as 0.1) grown in a medium containing 0.1% DMSO. • A: The value of ALDH (+) is less than 0.5 (growth suppressive effect against cancer stem cells is extremely high) • B: The value of ALDH (+) is 0.5 or more and less than 0.95 (growth suppressive effect against cancer stem cells is high) • C: The value of ALDH (+) is 0.95 or more (no growth suppressive effect against cancer stem cells)
Furthermore, superiority of cancer stem cells was evaluated by comparing cancer stem cells to cancer cells based on the following criteria. ALDH (+) represents cancer stem cells; whereas ALDH (−) represents general cancer cells. • A: The value of ALDH (+)/ALDH (−) is less than 0.8 (selective inhibitory effect against cancer stem cells is extremely high) • B: The value of ALDH (+)/ALDH (−) is 0.8 or more and less than 0.95 (selective inhibitory effect against cancer stem cells is high) • C: The value of ALDH (+)/ALDH (−) is 0.95 or more (no selective inhibitory effect against cancer stem cells)

K562 ALDH (+) cells = test: Cancer stem-cell selective staining, fluorescent microscopy, ALDH (+) cells; assay type: cell-based, Human
Method: The cells cultured for 24 hours in Experimental Example 16 were subjected to nuclear staining with Hoechest33342 (manufactured by Dojindo Laboratories) and a fluorescent image observed under AXIOVERT200M inverted fluorescent microscope (manufactured by Carl Zeiss) was photographed.

[3] = system: Prostatic cancer cells, PC-3; test: Cancer cell inhibitory (growth suppressive) action against prostatic cancer cells, CellTiter-Glo viable cell count; assay type: cell-based; conditions: PC-3, 10 μg/mL, 24 hours
Method: Prostatic cancer cells, PC-3, were pre-cultured in RPMI1640 medium containing 10% FBS at 37° C. in a 5% CO2 ambient. Thereafter, 4,000 cells were seeded per well of a 96-well plate and further cultured for 24 hours. Subsequently, Compound (11) was added to the medium so as to obtain a final concentration of 10 μg/mL and cultured at 37° C. for 24 hours in a 5% CO2 ambient. The cultured cells were analyzed for viable cell count according to CellTiter-Glo Luminescent Cell Viability Assay (manufactured by Promega KK.). As a reference, the number of cells cultured in a medium containing a 0.1% dimethylsulfoxide solution (hereinafter, simply referred to as DMSO) in place of a medium containing Compound (11), in the aforementioned operation, was used as 100.
Viable cell count was analyzed in the same manner as in Experimental Example 8 except that the compounds shown in Table 3 were used in place of Compound (11) of Experimental Example 8.
Viable cell count was analyzed in the same manner as in Experimental Example 8 except that comparative compounds 1 to 4 were used in place of Compound (11) of Experimental Example 8.
The growth rate in Examples herein is a numerical value of the number of cells obtained after culture relative to the number of cells (regarded as 100) grown in a medium containing 0.1% DMSO.
Evaluation of cancer cell inhibition against the prostatic cancer cells (PC-3) was made as follows. • A: Cancer cell growth rate is less than 20% (cancer cell inhibitory (growth suppressive) effect is extremely high) • B: Cancer cell growth rate is 20% or more and less than 50% (cancer cell inhibitory (growth suppressive) effect is high) • C: Cancer cell growth rate is 50% or more (cancer cell inhibitory (growth suppressive) effect is low)

## COc1ccc(N2c3ccc(/C=C/C4=[N+](C)c5ccccc5C4(C)C)cc3C3CCCC32)cc1 (stereo not drawn) [Compound 11]
[1]
  Excitation wavelength λex: 614 nm
  Fluorescence wavelength λem: 669 nm
[2]; 0.05 μg/mL
  activity at 0.05 µg/mL: 77%
[2]; 0.5 μg/mL
  activity at 0.5 µg/mL: 49%
[2]; 1 μg/mL
  activity at 1 µg/mL: 22%
K562 ALDH (+) cells; ALDH (+) versus ALDH (−) K562 cells
  Selective staining of cancer stem cells: selectively stained
K562 ALDH (+) cells; cells cultured for 24 hours in Experimental Example 16 (1 μg/mL)
  ALDH(+) (ratio of ALDH (+) cells stained): 76.7%
[3]; read-out: Evaluation (cancer cell growth rate)
  activity at 10 µg/mL: < 20%
[3]; relative to 0.1% DMSO (100), read-out: Cancer cell growth rate (%)
  activity at 10 µg/mL: 6.7%
